Here are results for one compound from patent publication US20210221848A1, “POLYMYXIN DERIVATIVES AND THEIR USE IN COMBINATION THERAPY TOGETHER WITH DIFFERENT ANTIBIOTICS” (priority 2014, published 2021).

One series has as its system HK-2 cell line. The series is described as follows: In vitro renal cell toxicity assay (resazurin reduction). As for the experimental part: MICs were determined as described herein. HK-2 cell IC50 values were determined as described herein. Values are reported relative to Polymyxin B.
Series [1] concerns Pseudomonas aeruginosa ATCC 27853. It is filed as in vivo. Conditions: ATCC 27853, in vivo, sc, 17.2 mg/kg, 10 h. On the procedure: Groups of 7 male neutropenic specific-pathogen-free CD-1 mice weighing 21.5-27.5 g were used. On Day 0, animals were infected with 0.04 mL inoculum by intranasal instillation into mouse nostrils and were kept in an upright position on a string rack for ˜10 min post-infection. […] At 2 h, the CFU count was determined from 3 mice and the remaining mice (7 per test compound groups) were treated with a subcutaneous injection of the drug at +2, 6 and 10 hr post-infection. Test compounds and the comparator polymyxin B were administered at four concentrations (2.6, 8.6, 17.2 and 25.8 mg/kg free base). The vehicle control group (7 mice) was treated with 0.9% saline for injection at 2, 6 and 10 h post-infection.
Sixteen hours after infection, the mice were euthanized humanely. The lungs of each animal were harvested, homogenized and quantitatively cultured onto CLED agar for CFU determination. Decrease of the total CFU compared to control counts at 16 h post-infection was determined for each dose group.
The in vivo efficacy of 4 compounds of the invention (D25, D36, D42 and D50) was evaluated in a mouse lung infection model of P. aeruginosa ATCC 27853. The model was setup as described above with the exception that groups of up to 8 mice were inoculated through intranasal instillation of ˜2.5×10^6 CFUs of P. aeruginosa isolate ATCC 27853 (1.0×10^5 CFU/lung). Test compounds were administered at two concentrations (equivalent to 4.3 and 17.2 mg/kg free base). Three dose levels of polymyxin B sulfate were used as comparator (equivalent to 4.3, 8.6 and 17.2 mg/kg free base).

In brackets after ≈: the same amount, converted by molar mass. Bridge positions count the residues as written; N and C are the ends. Square brackets hold non-standard residues; d marks the D form. Peptide text beside a SMILES is read from it. * marks the point of attachment. aThr = C[C@H](O)[C@H](N)C(=O)O; X2 = CC(C)CN1CCNC[C@H]1C(=O)*; Dab = NCC[C@H](N)C(=O)O

With `CC(C)C[C@@H]1NC(=O)[C@@H](Cc2ccccc2)NC(=O)[C@H](CCN)NC(=O)[C@@H](NC(=O)[C@H](CCN)NC(=O)[C@@H](NC(=O)[C@@H]2CNCCN2CC(C)C)[C@H](C)O)CCNC(=O)[C@H]([C@@H](C)O)NC(=O)[C@H](CCN)NC(=O)[C@H](CCN)NC1=O` [Example D36, (S)-1-(2-methylpropyl)-piperazine-2-carbonyl polymyxin B nonapeptide] (X2-[aThr][Dab][Dab][Dab][dF]L[Dab][Dab]T; lactam 3-C), the “HK-2 IC50 rel to PMB” value in the series on HK-2 cell line worked out at 4.5. The “Mean log10 CFU reduction vs. control” value in series [1] is reported as 5.30 log10 CFU. In the series on K. pneumoniae, this compound had an MIC of 0.25 µg/mL (≈ 0.221 µM).

The term MIC denotes the smallest concentration in the dilution series that meets the test's criterion for growth inhibition. Read a low MIC as inhibition by little substance.
